{"source": "patent US10538535B2", "about": "“Antitumoral compounds” (priority 2017, dated 2020)", "key": {"[1]": {"experiment": "MTD (Maximum Tolerated Dose) determination, single iv administration", "type": "in vivo", "details": "female, mouse, in vivo; mice; iv/SD", "text": "(§1) Female CD-1 or Athymic Nude-Fox1 nu/nu mice (Envigo) were utilized for all experiments. […] Animals were acclimated for five days prior to being individually tattoo-identified. Animal protocols were reviewed and approved according to the regional Institutional Animal Care and Use Committees.\n(§2) Mice were randomly allocated into experimental groups and intravenously administered, once for the MTD (Maximum Tolerated Dose) determination or one administration a week during three consecutive weeks, for the MTMD (Maximum Tolerated Multiple Dose) determination study. The animals were administered with white formulation or with compound dissolved in the experimental formulation at different concentrations. The volume administered was always 10 mL/kg. Once administered, animals were monitored for clinical signs of systemic toxicity, changes in body weight and mortality up to 14 days after the administration."}, "[2]": {"experiment": "MTMD (Maximum Tolerated Multiple Dose) determination, iv weekly x3", "type": "in vivo", "details": "mice; iv/Q7dx3", "text": "as §1, §2"}, "A549 cells": {"tested_on": "A549 cells", "experiment": "cells", "details": "Homo sapiens, A549, 72 h; for CC50: read-out: LC50", "procedure,_shortened": "(§3)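 Cells were seeded at 5000 per well, attached overnight in drug-free medium, then exposed for 72 hours to ten 2/5 serial dilutions (10 to 0.003 μg/mL, 1% final DMSO) in triplicate. Growth was measured by SRB staining against a time-zero plate, with NCI-algorithm four-parameter logistic fits.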"}, "HT29 cells": {"tested_on": "HT29 cells", "experiment": "cells", "details": "Homo sapiens, HT-29, 72 h; for CC50: read-out: LC50", "procedure,_shortened": "as §3"}, "MDA-MB-231 cells": {"tested_on": "MDA-MB-231 cells", "experiment": "cells", "details": "Homo sapiens, MDA-MB-231, 72 h", "procedure,_shortened": "as §3"}, "PSN1 cells": {"tested_on": "PSN1 cells", "experiment": "cells", "details": "Homo sapiens, PSN1, 72 h", "procedure,_shortened": "as §3"}, "[3]": {"tested_on": "solid and non-solid tumour cell lines", "details": "cited from earlier work"}, "[4]": {"tested_on": "xenografted human tumor cell lines (breast, kidney and ovarian cancer)", "details": "xenografted human tumor cell lines in mice, such as breast; cited from earlier work"}}, "note": "Like-named read-outs stand apart in the source and are kept apart here."}
{"smiles": "COc1c(C)cc2c(c1O)[C@@H]1[C@@H]3[C@@H]4SC[C@]5(N[C@H](CO)Cc6c5[nH]c5ccccc65)C(=O)OC[C@@H](c5c6c(c(C)c(OC(C)=O)c54)OCO6)N3[C@@H](O)[C@H](C2)N1C", "note": "[Compound 4-S]", "values": [{"measurement": "Median Tumor Volume", "setting": "DU-145 tumors; Day 0, 4-S 1.00 mg/Kg iv Days 0, 7 and 14", "value": 126.2, "unit": "mm^3"}, {"measurement": "Median Tumor Volume", "setting": "DU-145 tumors; Day 3, 4-S 1.00 mg/Kg iv Days 0, 7 and 14", "value": 102.4, "unit": "mm^3"}, {"measurement": "Median Tumor Volume", "setting": "DU-145 tumors; Day 5, 4-S 1.00 mg/Kg iv Days 0, 7 and 14", "value": 119.5, "unit": "mm^3"}, {"measurement": "Median Tumor Volume", "setting": "DU-145 tumors; Day 7, 4-S 1.00 mg/Kg iv Days 0, 7 and 14", "value": 149.5, "unit": "mm^3"}, {"measurement": "Median Tumor Volume", "setting": "DU-145 tumors; Day 10, 4-S 1.00 mg/Kg iv Days 0, 7 and 14", "value": 216.8, "unit": "mm^3"}, {"measurement": "Median Tumor Volume", "setting": "DU-145 tumors; Day 12, 4-S 1.00 mg/Kg iv Days 0, 7 and 14", "value": 181.4, "unit": "mm^3"}, {"measurement": "Median Tumor Volume", "setting": "DU-145 tumors; Day 14, 4-S 1.00 mg/Kg iv Days 0, 7 and 14", "value": 237.7, "unit": "mm^3"}, {"measurement": "Median Tumor Volume", "setting": "DU-145 tumors; Day 17, 4-S 1.00 mg/Kg iv Days 0, 7 and 14", "value": 204.4, "unit": "mm^3"}, {"measurement": "Median Tumor Volume", "setting": "DU-145 tumors; Day 19, 4-S 1.00 mg/Kg iv Days 0, 7 and 14", "value": 210.9, "unit": "mm^3"}, {"measurement": "Median Tumor Volume", "setting": "DU-145 tumors; Day 24, 4-S 1.00 mg/Kg iv Days 0, 7 and 14", "value": 300.0, "unit": "mm^3"}, {"measurement": "Median Tumor Volume", "setting": "DU-145 tumors; Day 26, 4-S 1.00 mg/Kg iv Days 0, 7 and 14", "value": 378.4, "unit": "mm^3"}, {"measurement": "Median Tumor Volume", "setting": "DU-145 tumors; Day 28, 4-S 1.00 mg/Kg iv Days 0, 7 and 14", "value": 587.0, "unit": "mm^3"}, {"measurement": "Median Tumor Volume", "setting": "DU-145 tumors; Day 31, 4-S 1.00 mg/Kg iv Days 0, 7 and 14", "value": 650.3, "unit": "mm^3"}, {"measurement": "MTD at 14 days", "setting": "[1]", "value": 1, "unit": "mg/kg"}, {"measurement": "MTMD", "setting": "[2]", "value": 1.25, "unit": "mg/kg"}, {"measurement": "CC50", "setting": "A549 cells", "value": "> 127", "unit": "nM"}, {"measurement": "CC50", "setting": "HT29 cells", "value": "> 127", "unit": "nM"}]}
{"smiles": "COc1ccc2[nH]c3c(c2c1)CCN[C@]31CS[C@@H]2c3c(OC(C)=O)c(C)c4c(c3[C@H](COC1=O)N1[C@@H]2[C@H]2c3c(cc(C)c(OC)c3O)C[C@@H]([C@@H]1O)N2C)OCO4", "note": "[PM01183]", "values": [{"measurement": "GI50", "setting": "MDA-MB-231 cells", "value": 2.29, "unit": "nM"}, {"measurement": "CC50", "setting": "MDA-MB-231 cells; read-out: LC50", "value": 10.2, "unit": "nM"}, {"measurement": "IC (TGI)", "setting": "MDA-MB-231 cells; read-out: TGI", "value": 3.95, "unit": "nM"}, {"measurement": "GI50", "setting": "A549 cells", "value": 3.31, "unit": "nM"}, {"measurement": "CC50", "setting": "A549 cells", "value": "> 127", "unit": "nM"}, {"measurement": "IC (TGI)", "setting": "A549 cells; read-out: TGI", "value": 3.57, "unit": "nM"}, {"measurement": "GI50", "setting": "PSN1 cells", "value": 3.19, "unit": "nM"}, {"measurement": "CC50", "setting": "PSN1 cells; read-out: LC50", "value": 5.73, "unit": "nM"}, {"measurement": "IC (TGI)", "setting": "PSN1 cells; read-out: TGI", "value": 3.95, "unit": "nM"}, {"measurement": "GI50", "setting": "HT29 cells", "value": 1.91, "unit": "nM"}, {"measurement": "CC50", "setting": "HT29 cells", "value": "> 127", "unit": "nM"}, {"measurement": "IC (TGI)", "setting": "HT29 cells; read-out: TGI", "value": 4.46, "unit": "nM"}, {"measurement": "in vitro activity", "setting": "[3]", "value": "highly potent in vitro activity"}, {"measurement": "in vivo activity", "setting": "[4]", "value": "significant in vivo activity"}]}
